Key:
Type in all cases: in vivo, human
[1] = test system: Protein C inhibitor (PCI) expression; assay: Real time PCR of PCI expression in muscle, pre- vs post-troglitazone-treated patients; details: mean diabetic post-Tro/mean diabetic pre-Tro expression
Protocol: The gene expression changes observed in the human muscle samples derived from the various comparison populations analyzed in the profiling analysis described above were further confirmed by the use of real-time quantitative PCR. A combination of specific PCR primers and a Taqman probe were designed to detect and quantify expression levels for each gene. Relative gene expression levels were determined in this manner in each patient and the mean expression levels in the comparison populations were then calculated. PCI expression was also evaluated by real time PCR in lean vs. obese individuals and in pre-troglitazone-treated vs post-troglitazone-treated patients.

[2] = test system: Protein C inhibitor (PCI) transcripts; assay: Gene expression profiling (Affymetrix chips) of muscle from diabetics before/after 3 months troglitazone: PCI; details: basal muscle sample
Excerpt: The molecular mechanism by which thiazolidinediones (TZDs) cause an increase in peripheral insulin sensitivity was studied. Genes in muscle or fat whose expression is altered by TZDs may lie on a pathway leading from TZD treatment to increased insulin sensitivity. Modulators of such genes can elicit the same effect as TZD treatment. Moreover, such modulators can lack some of the side effects of TZD. The majority of glucose disposal occurs in muscle. For this reason, gene expression profiling in human muscle from diabetics treated with troglitazone was used to identify genes important for TZD action and therefore treatment of diabetes and insulin resistance. Gene expression profiling was performed on tissue samples (muscle) obtained from lean obese and diabetic individuals. […] Gene expression profile differences were calculated as follows. […] The raw data was analyzed by a statistical test to remove ‘outliers’. The mean ‘average difference score’ was then calculated from the average difference scores for all individuals in a particular treatment group. Genes were determined to be changed in three different comparisons by calculating the Students t test statistic between two conditions and selecting those with t less than or equal to 0.05. Fold change was determined as the ratio of mean average difference score in condition 2 to the mean average difference score in condition 1. […]

[3] = test system: MAST205/MAST205b transcripts; assay: Gene expression profiling (Affymetrix chips) of muscle from diabetics before/after 3 months troglitazone: MAST205/MAST205b; details: basal muscle sample
Protocol: Gene expression profiling was performed on tissue samples (muscle) obtained from lean obese and diabetic individuals. Two studies were performed. In the first study, basal samples were isolated from all individuals at the beginning of a 5 hour hyperinsulinemic euglycemic clamp. Clamp samples were isolated at the end of this procedure. Similar basal and clamp samples were taken 3 months later after all patients had taken the insulin sensitizing drug troglitazone (tro). Gene expression profile differences were calculated as follows. The expression level of a particular gene is indicated by its ‘average difference score’. The raw data was analyzed by a statistical test to remove ‘outliers’. The mean ‘average difference score’ was then calculated from the average difference scores for all individuals in a particular treatment group. Genes were determined to be changed in three different comparisons by calculating the Students t test statistic between two conditions and selecting those with t less than or equal to 0.05. Fold change was determined as the ratio of mean average difference score in condition 2 to the mean average difference score in condition 1. The first comparison is basal leans (condition 1) versus basal obese (condition 2). The second comparison is basal leans (condition 1) versus basal diabetics (condition). […]

[4] = test system: MAST205b expression; assay: Real-time PCR (Taqman) specific for MAST205b in muscle before/after 3 months troglitazone
Protocol: (§1) The gene expression changes observed in the human muscle samples derived from the various comparison populations analyzed in the profiling analysis described above were further confirmed by the use of real-time quantitative PCR. A combination of specific PCR primers and a Taqman probe were designed to detect and quantify expression levels for each gene. Relative gene expression levels were determined in this manner in each patient and the mean expression levels in the comparison populations were then calculated. […] PCR primers and Taqman Probe were designed to detect specifically the expression of MAST205b. The sequences of the primers was as follows: […]

[5] = test system: MAST205 expression; assay: Real-time PCR (Taqman) specific for MAST205 in muscle before/after 3 months troglitazone
Protocol: as §1, with “MAST205.” for “MAST205b.”

[6] = 3 months troglitazone, gene profiling
[7] = muscle, lean individuals after 3 months troglitazone, relative to Lean Pre-Trog = 100%
[8] = ratio of relative expression Diabetic Post-Trog to Diabetic Pre-Trog

Cc1c(C)c2c(c(C)c1O)CCC(C)(COc1ccc(CC3SC(=O)NC3=O)cc1)O2 (centres unmarked) [troglitazone]
Expression Fold change, Diabetics + Tro/Diabetics − Tro (PCI) [1]: 0.33 | Fold Change (diabetic post tro/diabetic pre tro), Protein C inhibitor [2, 6]: 0.51 | Mean Expr, Diabetic Post-Trog (Protein C inhibitor) ([2]; diabetics after 3 months of Troglitazone treatment, pre-Trog mean 1422): 722 | Fold Change, Diabetic Post-Trog vs Pre-Trog (MAST205) [3, 6]: 0.74 | Mean Expr, Diabetic Post-Trog (MAST205) ([3]; diabetics after 3 months troglitazone, pre-Trog mean 1234): 919 | Relative Exp (%), Diabetic Post-Tro (MAST205b) ([4]; muscle, diabetics after 3 months troglitazone, relative to Lean Pre-Trog = 100%, Diabetic Pre-Trog 197): 111% | Relative Exp (%), Lean Post-Trog (MAST205b) [4, 7]: 88% | Fold Change (D+/D−) (MAST205b) [4, 8]: 0.56 | Relative Exp (%), Diabetic Post-Tro (MAST205) ([5]; muscle, diabetics after 3 months troglitazone, relative to Lean Pre-Trog = 100%, Diabetic Pre-Trog 242): 66% | Relative Exp (%), Lean Post-Trog (MAST205) [5, 7]: 98% | Fold Change (D+/D−) (MAST205) [5, 8]: 0.27
